Assay results published in US12116698B1, “Protein surface recognition via chemically enhanced phage display” (The Trustees of Boston College, priority 2019, dated 2024).
Entries after “also recorded” stand apart in the source; their conditions may differ. Where a SMILES comes first, the peptide text is derived from it. Where no end group is shown, it is not given here. [ ]: non-standard residue; d: D form. The star is where a group is joined. APBA = (2-acetyl-5-(3-(2-iodoacetamido)propoxy)phenyl)boronic acid, Cys modified with it (Cm in name), CC(=O)c1ccc(OCCCNC(=O)C*)cc1B(O)O; X1 = CC(=O)c1ccc(OCCCNC(=O)C*)cc1B(O)O; Dap = NC[C@H](N)C(=O)O; Cam = NC(=O)C*

Experiments:
streptavidin = streptavidin (Streptomyces avidinii, UniProt P22629); format: binding; conditions: for staining of streptavidin-coated beads by SrtA screen peptides: even at 25 μm; for staining of streptavidin beads without SrtA coating: streptavidin beads alone, no SrtA; for fluorescence brightness of streptavidin beads on addition of BSA: BSA 1 mg/mL; for fluorescence staining of streptavidin beads after surface lysine acetylation: beads treated with Ac-NHS, 3 mM; for fluorescence staining of streptavidin-coated beads: excess biotin present; for effect of biotin on fluorescence staining of streptavidin-coated beads: with and without biotin
sortase A (SrtA) [1] = target: T1, sortase A (SrtA) (Staphylococcus aureus, UniProt Q2FV99); format: binding, S. aureus; conditions: for staining of SrtA-coated beads in the presence of BSA: 10 mg/mL BSA; for fluorescence staining of SrtA-coated beads: peptide at 25 μM
sortase A (SrtA) [2] = target: T1, sortase A (SrtA); conditions: competition with DMMA
Text: To probe the peptides' binding site on SrtA, a competition experiment was designed using a known small molecule inhibitor of SrtA, DMMA (FIG. 8E).

T1 sequence (Q2FV99 whole entry): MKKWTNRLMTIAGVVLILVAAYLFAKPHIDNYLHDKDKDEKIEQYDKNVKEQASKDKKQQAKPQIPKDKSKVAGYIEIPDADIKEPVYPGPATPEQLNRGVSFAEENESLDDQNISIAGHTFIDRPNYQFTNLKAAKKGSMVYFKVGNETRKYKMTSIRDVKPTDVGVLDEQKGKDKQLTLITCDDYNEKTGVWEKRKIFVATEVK
Sequence of streptavidin (P22629 37-163 limits assumed): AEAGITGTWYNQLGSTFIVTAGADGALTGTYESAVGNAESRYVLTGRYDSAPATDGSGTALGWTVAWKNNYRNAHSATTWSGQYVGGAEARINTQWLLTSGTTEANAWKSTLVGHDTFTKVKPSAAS

Row | Molecule | staining of streptavidin-coated beads by SrtA screen peptides (streptavidin) | staining of streptavidin beads without SrtA coating (streptavidin) | staining of SrtA-coated beads in the presence of BSA (sortase A (SrtA) [1]) | fluorescence staining of SrtA-coated beads (sortase A (SrtA) [1]) | effect of DMMA addition on SrtA binding (sortase A (SrtA) [2]) | fluorescence brightness of streptavidin beads on addition of BSA (streptavidin) | fluorescence staining of streptavidin beads after surface lysine acetylation (streptavidin) | fluorescence staining of streptavidin-coated beads (streptavidin) | effect of biotin on fluorescence staining of streptavidin-coated beads (streptavidin)
1 | CC(=O)c1ccc(OCCCNC(=O)CSC[C@H](NC(=O)[C@H](C)N)C(=O)N[C@@H](CC(C)C)C(=O)N[C@@H](CC(N)=O)C(=O)N[C@@H](CO)C(=O)N[C@@H](CO)C(=O)N[C@@H](CCC(N)=O)C(=O)N2CCC[C@H]2C(=O)N[C@@H](CO)C(=O)N[C@@H](CSCC(=O)NCCCOc2ccc(C(C)=O)c(B(O)O)c2)C(=O)NCC(=O)NCC(=O)NCC(=O)N[C@@H](CN)C(N)=O)cc1B(O)O [W2, ACmLNSSQPSCmGGGDap] (H-AC(X1)LNSSQPSC(X1)GGG[Dap]-NH2; N-terminus and C-terminus assumed) | fail to stain streptavidin-coated beads | little binding to the agarose beads | effective binding; also recorded: stain the SrtA coated beads | strong fluorescence staining of the SrtA-coated beads | binds the SrtA surface instead of the catalytic site; also recorded: no inhibition of the SrtA binding |  |  |  | 
2 | CC(=O)c1ccc(OCCCNC(=O)CSC[C@H](NC(=O)[C@H](C)N)C(=O)N[C@@H](CC(=O)O)C(=O)NCC(=O)N[C@@H](CCCNC(=N)N)C(=O)N2CCC[C@H]2C(=O)N[C@@H](CC(=O)O)C(=O)N[C@@H](CCCNC(=N)N)C(=O)N[C@@H](C)C(=O)N[C@@H](CSCC(=O)NCCCOc2ccc(C(C)=O)c(B(O)O)c2)C(=O)NCC(=O)NCC(=O)NCC(=O)N[C@@H](CN)C(N)=O)cc1B(O)O [SA2, ACmDGRPDRACmGGGDap] (H-AC(X1)DGRPDRAC(X1)GGG[Dap]-NH2; N-terminus and C-terminus assumed) |  |  |  |  |  | minimally affected | greatly reduced the fluorescence staining | fluorescence staining of the beads at low micromolar concentrations | marginal differences in fluorescence intensity with and without biotin
3 | AcmDGRPDRACmGGGDap (AC(Cam)DGRPDRAC(APBA)GGG[Dap]; not fully specified (residue 14); also: fluorescent label on Dap, identity not given here) [SA2-IA, reference compound] |  |  |  |  |  |  |  | failed to stain the streptavidin beads | 
4 | ACmTPNKTPKCmGGGDap (AC(APBA)TPNKTPKC(APBA)GGG[Dap]; not fully specified (residue 14); also: APBA dimer modification, fluorescent label on Dap14) [W4] | fail to stain streptavidin-coated beads | no fluorescence staining of the streptavidin beads alone |  | weak fluorescence staining of SrtA-coated beads; also recorded: much lower fluorescence staining of the beads |  |  |  |  | 
5 | AcmTPRSANYCmGGGDap (AC(Cam)TPRSANYC(APBA)GGG[Dap]; not fully specified (residue 14); also: fluorescent label on Dap, identity not given here) [SA1-IA, reference compound] |  |  |  |  |  |  |  | failed to stain the streptavidin beads | 
6 | CC(=O)c1ccc(OCCCNC(=O)CSC[C@H](NC(=O)[C@H](C)N)C(=O)N[C@@H](Cc2c[nH]cn2)C(=O)N2CCC[C@H]2C(=O)N[C@H](C(=O)N[C@@H](CO)C(=O)NCC(=O)N[C@@H](CCC(N)=O)C(=O)N[C@@H](CCCCN)C(=O)N[C@@H](CSCC(=O)NCCCOc2ccc(C(C)=O)c(B(O)O)c2)C(=O)NCC(=O)NCC(=O)NCC(=O)N[C@@H](CN)C(N)=O)C(C)C)cc1B(O)O [W1, ACmHPVSGQKCmGGGDap] (H-AC(X1)HPVSGQKC(X1)GGG[Dap]-NH2) | fail to stain streptavidin-coated beads | little binding to the agarose beads | greater inhibition was observed | strong fluorescence staining of the SrtA-coated beads | no inhibition of the SrtA binding |  |  |  | 
7 | CC(=O)c1ccc(OCCCNC(=O)CSC[C@H](NC(=O)[C@H](C)N)C(=O)N[C@H](C(=O)N2CCC[C@H]2C(=O)N[C@@H](CCCNC(=N)N)C(=O)N[C@@H](CO)C(=O)N[C@@H](C)C(=O)N[C@@H](CC(N)=O)C(=O)N[C@@H](Cc2ccc(O)cc2)C(=O)N[C@@H](CSCC(=O)NCCCOc2ccc(C(C)=O)c(B(O)O)c2)C(=O)NCC(=O)NCC(=O)NCC(=O)N[C@@H](CN)C(N)=O)[C@@H](C)O)cc1B(O)O [SA1, ACmTPRSANYCmGGGDap] (H-AC(X1)TPRSANYC(X1)GGG[Dap]-NH2; N-terminus and C-terminus assumed) |  |  |  |  |  | minimally affected | completely abolished the fluorescence staining | fluorescence staining of the beads at low micromolar concentrations | marginal differences in fluorescence intensity with and without biotin
8 | ACmIQKNTTTCmGGGDap (AC(APBA)IQKNTTTC(APBA)GGG[Dap]; not fully specified (residue 14); also: APBA dimer modification, fluorescent label on Dap14) [W3] | fail to stain streptavidin-coated beads | no fluorescence staining of the streptavidin beads alone |  | weak fluorescence staining of SrtA-coated beads; also recorded: much lower fluorescence staining of the beads |  |  |  |  | 
